Measurements reported in patent US11149066B2, “Thrombospondin 1-binding peptide” (DAIICHI SANKYO COMPANY, LIMITED, priority 2016, dated 2021).
Positions of bridges follow the written chain, without caps; N, C: chain ends. Non-standard residues stand in square brackets, D forms with d. Residues, ends and D or L forms follow the SMILES beside them. Phe(4-CH2NH2) = NCc1ccc(C[C@H](N)C(=O)O)cc1; 2Nal = N[C@@H](Cc1ccc2ccccc2c1)C(=O)O; Met(O2) = CS(=O)(=O)CC[C@H](N)C(=O)O; His(π-Me) = Cn1cncc1C[C@H](N)C(=O)O; hCit = NC(=O)NCCCC[C@H](N)C(=O)O; hPhe = N[C@@H](CCc1ccccc1)C(=O)O; Phg = N[C@H](C(=O)O)c1ccccc1; Tle = CC(C)(C)[C@H](N)C(=O)O; hCys = N[C@@H](CCS)C(=O)O; Nle = CCCC[C@H](N)C(=O)O

Target: human TSP1 (Homo sapiens, UniProt P07996)
Assay: Cell adhesion inhibition assay (HUVEC adhesion to TSP1-coated plate)
Assay type: cell-based
Details: HUVEC adhesion to TSP1-coated plate; read-out: cell adhesion inhibition (Table 4)
Protocol: As referred to herein, the TSP1 inhibitory activity refers to the activity to inhibit one or more effects of TSP1, including angiostatic effect. The TSP1 inhibitory activity is measured by a cell adhesion inhibition assay using human TSP1 and vascular endothelial cells as described hereinbelow in the Examples section. In this assay, when the 50% inhibitory concentration (IC5O) of a test substance is 200 nM or less, the test substance is determined to have TSP1 inhibitory activity.
(Test Example 1) Cell Adhesion Inhibition Assay
I. Materials and Reagents
96 well Non-treated White with clear bottom (Coster, 3632)
BrightMax adhesive sealing films (EXCEL Scientific, WT50)
Proteosave®SS 15 mL (Sumitomo Bakelite, MS-52150)
Thrombospondin human platelet (Calbiochem, 605225)
EGM-2 MV (Lonza, CC-3202): for HUVEC passaging
Collagen coated dish (IWAKI, 4020-010): for HUVEC passaging
Lipidure®-BL802 (NOF Corporation), 5% solution
Albumin solution (35%) fraction V from Bovine (Sigma, A7979)
CellTiter-Glo (Promega, G7572)
Thrombospondin 1 vial (25 μg) was dissolved in TBS (+2 mM CaCl2; the same shall apply hereunder) to make a 200 μg/mL solution, which was diluted with TBS to a concentration of 10 μg/mL in Proteosave® 15 mL tube. The 10 μg/mL solution was dispensed into a 96 well plate at a volume of 50 μL/well (no reservoir was used since the protein easily adsorbs on it), and the plate was left to stand at 4° C. overnight.
Lipidure® was diluted 10-fold with TBS to make a 0.5% solution. After a buffer was discarded from the plate that had been coated at the step of <Plate coat> as described above, the 0.5% solution was dispensed into all wells to be used at a volume of 100 μL/well, and the plate was left to stand at room temperature for 1 hour.
A 0.2 μM solution of each sample was prepared using a dilution buffer (DMEM+0.5% BSA). 2 μL of the 0.2 μM solution was diluted with 500 μL, of dilution buffer to prepare a diluted sample. As a vehicle control, DMSO was diluted in the same way as the samples.
A blocking solution was discarded from the plate that had been treated at the step of <Plate blocking> as described above, and the plate was washed three times with 150 μL/well of TBS. The washing solution used for the third washing was completely sucked out by an aspirator, and the diluted sample was dispensed into the plate at a volume of 50 μL/well. Then, the plate was left to stand at room temperature for 15 to 30 minutes.
To maintain HUVECs, EGM2-MV and a collagen coated dish were used (the cells were ceased to be used after 10th or 1 lth passage since the cell proliferation rate declined at this stage). The cells were dispersed with 0.05% Trypsin/EDTA, harvested in DMEM/0.5% BSA, and centrifuged at 1000 rpm for 3 minutes. After removal of supernatant, the cells were washed once with a DMEM buffer. The cells were resuspended in a DMEM buffer, counted for cell number, and diluted to 10000 cells/50 μL. The cell suspension was dispensed at a volume of 50 μL/well into the plate into which the sample had been dispensed, mixed gently, and incubated at 37° C. for 2.5 hours.
After cell adhesion was confirmed, the culture medium was completely removed by an aspirator, and 100 μL/well of DMEM/0.5% BSA was gently dispensed. Then, DMEM/0.5% BSA was completely removed by an aspirator, and 50 μL/well of DMEM/0.5% BSA was dispensed. After a white seal was applied to the bottom of the plate, 50 μL/well of CellTiter-Glo® was dispensed, and the solution was stirred for 2 minutes and left to stand at room temperature for 8 minutes. […] was detected using EnVision Xcite Multilabel Reader (produced by Perkin Elmer).
On the basis of the measured fluorescence values, the IC50 values (nM) of the different macrocyclic polypeptides for inhibition of cell adhesion were calculated.

Sequence of human TSP1 (P07996 19-1170 limits assumed): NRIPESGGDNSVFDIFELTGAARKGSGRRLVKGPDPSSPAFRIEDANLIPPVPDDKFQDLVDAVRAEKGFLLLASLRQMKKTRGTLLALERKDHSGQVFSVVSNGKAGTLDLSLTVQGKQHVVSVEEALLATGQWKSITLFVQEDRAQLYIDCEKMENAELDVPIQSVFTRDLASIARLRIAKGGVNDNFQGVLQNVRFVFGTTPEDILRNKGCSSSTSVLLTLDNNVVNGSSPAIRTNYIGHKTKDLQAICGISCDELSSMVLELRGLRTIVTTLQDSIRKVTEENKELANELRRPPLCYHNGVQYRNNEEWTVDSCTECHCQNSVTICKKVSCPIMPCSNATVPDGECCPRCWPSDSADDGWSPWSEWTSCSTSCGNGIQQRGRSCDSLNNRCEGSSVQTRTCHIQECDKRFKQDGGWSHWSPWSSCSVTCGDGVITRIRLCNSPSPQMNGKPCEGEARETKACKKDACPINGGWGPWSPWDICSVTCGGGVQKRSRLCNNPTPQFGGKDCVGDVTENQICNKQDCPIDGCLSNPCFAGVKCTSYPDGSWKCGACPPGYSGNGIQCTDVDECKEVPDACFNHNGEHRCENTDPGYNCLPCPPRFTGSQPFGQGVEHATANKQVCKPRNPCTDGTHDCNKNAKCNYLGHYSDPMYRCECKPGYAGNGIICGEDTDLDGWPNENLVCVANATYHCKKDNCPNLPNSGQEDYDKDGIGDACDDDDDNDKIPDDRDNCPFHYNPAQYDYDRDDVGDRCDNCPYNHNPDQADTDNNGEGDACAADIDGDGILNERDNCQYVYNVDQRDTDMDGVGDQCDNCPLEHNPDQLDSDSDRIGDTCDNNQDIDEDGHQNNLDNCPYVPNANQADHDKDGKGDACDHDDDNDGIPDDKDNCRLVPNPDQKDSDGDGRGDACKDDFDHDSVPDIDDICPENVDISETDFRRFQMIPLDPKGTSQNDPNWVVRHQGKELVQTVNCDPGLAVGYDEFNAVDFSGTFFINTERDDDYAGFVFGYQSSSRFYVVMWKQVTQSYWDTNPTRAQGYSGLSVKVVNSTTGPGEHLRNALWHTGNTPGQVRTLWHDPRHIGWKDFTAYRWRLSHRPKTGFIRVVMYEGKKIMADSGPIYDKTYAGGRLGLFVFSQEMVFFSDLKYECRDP

| Structure (SMILES) | IC50 [nM] |
| --- | --- |
| CCCC[C@@H]1NC(=O)[C@H](Cc2c[nH]c3ccccc23)NC(=O)[C@H](CC(=O)O)NC(=O)[C@H](CCCNC(=N)N)NC(=O)CNC(=O)[C@H](CO)NC(=O)[C@H]([C@@H](C)CC)NC(=O)[C@H](Cc2ccc3ccccc3c2)NC(=O)[C@H](C)NC(=O)CSC[C@@H](C(N)=O)NC(=O)[C@H](C(C)C)NC(=O)[C@H](Cc2c[nH]c3ccccc23)NC(=O)[C@H](CCCCN)NC1=O [Compound 80] ({CH2CO}-A[2Nal]ISGRDW[Nle]KWVC-NH2; thioether N-13) | 11.5 |

Same assay, conditions: HUVEC adhesion to human platelet thrombospondin-coated plate, 2.5 hours, CellTiter-Glo; read-out: Cell adhesion IC50

| Structure (SMILES) | IC50 [nM] |
| --- | --- |
| CC[C@H](C)[C@@H]1NC(=O)[C@H](Cc2ccc3ccccc3c2)NC(=O)CSC[C@@H](C(N)=O)NC(=O)[C@H](CCc2ccccc2)NC(=O)[C@H](Cc2c[nH]c3ccccc23)NC(=O)[C@H](CCCCN)NC(=O)[C@H](C(C)C)NC(=O)[C@H](Cc2c[nH]c3ccccc23)NC(=O)[C@H](CC(N)=O)NC(=O)[C@H](CCCNC(=N)N)NC(=O)CNC(=O)[C@H](CO)NC1=O [Compound 37] ({CH2CO}-[2Nal]ISGRNWVKW[hPhe]C-NH2; thioether N-12) | 19.6 |
| CCCC[C@@H]1NC(=O)[C@H](Cc2c[nH]c3ccccc23)NC(=O)[C@H](CC(N)=O)NC(=O)[C@H](CCCNC(=N)N)NC(=O)CNC(=O)[C@H](CO)NC(=O)[C@H]([C@@H](C)CC)NC(=O)[C@H](Cc2ccc3ccccc3c2)NC(=O)CSC[C@@H](C(N)=O)NC(=O)[C@H](C(C)C)NC(=O)[C@H](Cc2c[nH]c3ccccc23)NC(=O)[C@H](CCCCN)NC1=O [Compound 38] ({CH2CO}-[2Nal]ISGRNW[Nle]KWVC-NH2; thioether N-12) | 9.2 |
| CC[C@H](C)[C@@H]1NC(=O)[C@H](Cc2ccccc2)NC(=O)CSC[C@@H](C(N)=O)NC(=O)[C@H](C(C)C)NC(=O)[C@H](Cc2c[nH]c3ccccc23)NC(=O)[C@H](Cc2cncn2C)NC(=O)[C@H](C(C)C)NC(=O)[C@H](Cc2c[nH]c3ccccc23)NC(=O)[C@H](CC(N)=O)NC(=O)[C@H](CCCNC(=N)N)NC(=O)CNC(=O)[C@H](CO)NC1=O [Compound 46] ({CH2CO}-FISGRNWV[His(π-Me)]WVC-NH2; thioether N-12) | 30.3 |
| CC[C@H](C)[C@@H]1NC(=O)[C@H](Cc2ccccc2)NC(=O)CSC[C@@H](C(N)=O)NC(=O)[C@H](C(C)C)NC(=O)[C@H](Cc2c[nH]c3ccccc23)NC(=O)[C@H](Cc2ccc(CN)cc2)NC(=O)[C@H](C(C)C)NC(=O)[C@H](Cc2c[nH]c3ccccc23)NC(=O)[C@H](CC(N)=O)NC(=O)[C@H](CCCNC(=N)N)NC(=O)CNC(=O)[C@H](CO)NC1=O [Compound 47] ({CH2CO}-FISGRNWV[Phe(4-CH2NH2)]WVC-NH2; thioether N-12) | 16.7 |
| CC(C)[C@@H]1NC(=O)[C@H](Cc2c[nH]c3ccccc23)NC(=O)[C@H](CCCCN)NC(=O)[C@H](C(C)C)NC(=O)[C@H](Cc2c[nH]c3ccccc23)NC(=O)[C@H](CC(N)=O)NC(=O)[C@H](CCCNC(=N)N)NC(=O)CNC(=O)[C@H](CO)NC(=O)[C@H](c2ccccc2)NC(=O)[C@H](Cc2ccc3ccccc3c2)NC(=O)CSC[C@@H](C(N)=O)NC1=O [Compound 49] ({CH2CO}-[2Nal][Phg]SGRNWVKWVC-NH2; thioether N-12) | 11.5 |
| CC[C@H](C)[C@@H]1NC(=O)[C@H](Cc2ccc3ccccc3c2)NC(=O)CSC[C@@H](C(N)=O)NC(=O)[C@H](C(C)(C)C)NC(=O)[C@H](Cc2c[nH]c3ccccc23)NC(=O)[C@H](CCCCN)NC(=O)[C@H](C(C)C)NC(=O)[C@H](Cc2c[nH]c3ccccc23)NC(=O)[C@H](CC(N)=O)NC(=O)[C@H](CCCNC(=N)N)NC(=O)CNC(=O)[C@H](CO)NC1=O [Compound 53] ({CH2CO}-[2Nal]ISGRNWVKW[Tle]C-NH2; thioether N-12) | 15.9 |
| CC[C@H](C)[C@@H]1NC(=O)[C@H](Cc2ccc3ccccc3c2)NC(=O)CSCC[C@@H](C(N)=O)NC(=O)[C@H](C(C)C)NC(=O)[C@H](Cc2c[nH]c3ccccc23)NC(=O)[C@H](CCCCN)NC(=O)[C@H](C(C)C)NC(=O)[C@H](Cc2c[nH]c3ccccc23)NC(=O)[C@H](CC(N)=O)NC(=O)[C@H](CCCNC(=N)N)NC(=O)CNC(=O)[C@H](CO)NC1=O [Compound 54] ({CH2CO}-[2Nal]ISGRNWVKWV[hCys]-NH2; thioether N-12) | 19.5 |
| CCCC[C@@H]1NC(=O)[C@H](Cc2c[nH]c3ccccc23)NC(=O)[C@H](CC(=O)O)NC(=O)[C@H](CCCCN)NC(=O)CNC(=O)[C@H](CO)NC(=O)[C@H]([C@@H](C)CC)NC(=O)[C@H](Cc2ccc3ccccc3c2)NC(=O)CSC[C@@H](C(N)=O)NC(=O)[C@H](C(C)C)NC(=O)[C@H](Cc2c[nH]c3ccccc23)NC(=O)[C@H](CCCCN)NC1=O [Compound 57] ({CH2CO}-[2Nal]ISGKDW[Nle]KWVC-NH2; thioether N-12) | 15.6 |
| CCCC[C@@H]1NC(=O)[C@H](Cc2c[nH]c3ccccc23)NC(=O)[C@H](CC(N)=O)NC(=O)[C@H](Cc2c[nH]cn2)NC(=O)CNC(=O)[C@H](CO)NC(=O)[C@H]([C@@H](C)CC)NC(=O)[C@H](Cc2ccc3ccccc3c2)NC(=O)CSC[C@@H](C(N)=O)NC(=O)[C@H](C(C)C)NC(=O)[C@H](Cc2c[nH]c3ccccc23)NC(=O)[C@H](CCCCN)NC1=O [Compound 59] ({CH2CO}-[2Nal]ISGHNW[Nle]KWVC-NH2; thioether N-12) | 20.7 |
| CCCC[C@@H]1NC(=O)[C@H](Cc2c[nH]c3ccccc23)NC(=O)[C@H](CC(=O)O)NC(=O)[C@@H]2CCCN2C(=O)CNC(=O)[C@H](CO)NC(=O)[C@H]([C@@H](C)CC)NC(=O)[C@H](Cc2ccc3ccccc3c2)NC(=O)CSC[C@@H](C(N)=O)NC(=O)[C@H](C(C)C)NC(=O)[C@H](Cc2c[nH]c3ccccc23)NC(=O)[C@H](CCCCN)NC1=O [Compound 68] ({CH2CO}-[2Nal]ISGPDW[Nle]KWVC-NH2; thioether N-12) | 28.1 |
| CCCC[C@@H]1NC(=O)[C@H](Cc2c[nH]c3ccccc23)NC(=O)[C@H](CC(=O)O)NC(=O)[C@H](CCS(C)(=O)=O)NC(=O)CNC(=O)[C@H](CO)NC(=O)[C@H]([C@@H](C)CC)NC(=O)[C@H](Cc2ccc3ccccc3c2)NC(=O)CSC[C@@H](C(N)=O)NC(=O)[C@H](C(C)C)NC(=O)[C@H](Cc2c[nH]c3ccccc23)NC(=O)[C@H](CCCCN)NC1=O [Compound 71] ({CH2CO}-[2Nal]ISG[Met(O2)]DW[Nle]KWVC-NH2; thioether N-12) | 17.1 |
| CCCC[C@@H]1NC(=O)[C@H](Cc2c[nH]c3ccccc23)NC(=O)[C@H](CC(=O)O)NC(=O)[C@H](CCCCNC(N)=O)NC(=O)CNC(=O)[C@H](CO)NC(=O)[C@H]([C@@H](C)CC)NC(=O)[C@H](Cc2ccc3ccccc3c2)NC(=O)CSC[C@@H](C(N)=O)NC(=O)[C@H](C(C)C)NC(=O)[C@H](Cc2c[nH]c3ccccc23)NC(=O)[C@H](CCCCN)NC1=O [Compound 74] ({CH2CO}-[2Nal]ISG[hCit]DW[Nle]KWVC-NH2; thioether N-12) | 20.7 |
| CCCC[C@@H]1NC(=O)[C@H](Cc2c[nH]c3ccccc23)NC(=O)[C@H](CC(=O)O)NC(=O)[C@H](CCCNC(=N)N)NC(=O)CNC(=O)[C@H](CO)NC(=O)[C@H]([C@@H](C)CC)NC(=O)[C@H](Cc2ccc3ccccc3c2)NC(=O)CNC(=O)CSC[C@@H](C(N)=O)NC(=O)[C@H](C(C)C)NC(=O)[C@H](Cc2c[nH]c3ccccc23)NC(=O)[C@H](CCCCN)NC1=O [Compound 75] ({CH2CO}-G[2Nal]ISGRDW[Nle]KWVC-NH2; thioether N-13) | 16.1 |
